The text below walks through data of the supplement of paper PMC11451515.

What all share (test): AUC of viability dose-response curve (% viability x log10 dose units); higher = less sensitive
Holding throughout (conditions): 48 h

One experiment has as its system SEM cells. The method in brief: (§1)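 In 1536-well plates, leukemia cells adapted to each medium (500 or 1000 cells/well) were exposed for 48 h at 37°C to library compounds in DMSO across 11 threefold doses, 47 μM down to 0.79 nM. Viability was read by CellTiter-Glo One luminescence and normalised per plate to DMSO and cell-free wells. A four-parameter log-logistic fit over log10 doses was integrated by trapezoidal rule. This yielded the area under the curve, with over-full-viability curves scaled and quality-control failures dropped.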

Another experiment deals with P12-Ichikawa. The method in brief:
as §1

The test system of another experiment is NOMO1. The procedure, abridged: as §1
[1] abbreviates: RPMI 5 mM glucose + 10% dialyzed FBS.

Each structure is given as a SMILES string.

In the case of `COc1ccc([C@@H]2CNC(=O)C2)cc1OC1CCCC1`, the “AUC of viability dose-response curve” value was 454 with SEM cells (HPLM + 10% dialyzed FBS); 458 in the experiment with SEM cells (RPMI 5 mM glucose + 10% FBS); 459 in the experiment with SEM cells (setting [1]); 466 with P12-Ichikawa (HPLM + 10% dialyzed FBS); 456 in the experiment on P12-Ichikawa (RPMI 5 mM glucose + 10% FBS); 458 in the experiment with P12-Ichikawa (setting [1]). Besides, the “AUC of viability dose-response curve” value stood at 452 in the experiment with NOMO1 (HPLM + 10% dialyzed FBS), 467 in the experiment on NOMO1 (RPMI 5 mM glucose + 10% FBS) and 468 with NOMO1 (setting [1]).

In the case of `Cn1cc(-c2ccc3ncc(Cc4ccc5ncccc5c4)n3n2)cn1`, the “AUC of viability dose-response curve” value in the experiment with SEM cells (HPLM + 10% dialyzed FBS) came out at 450; in the experiment on SEM cells (RPMI 5 mM glucose + 10% FBS), 452; in the experiment with SEM cells (setting [1]), 450; with P12-Ichikawa (HPLM + 10% dialyzed FBS), 472; in the experiment with P12-Ichikawa (RPMI 5 mM glucose + 10% FBS), 474; with P12-Ichikawa (setting [1]) it was 470. The “AUC of viability dose-response curve” value with NOMO1 (HPLM + 10% dialyzed FBS) came to 468; in the experiment on NOMO1 (RPMI 5 mM glucose + 10% FBS) it was 477; in the experiment on NOMO1 (setting [1]) it was 472.

As to `CCOP(=O)(OCC)C(C)NC(=O)N(CCCl)N=O` (stereo not drawn), the “AUC of viability dose-response curve” value in the experiment on SEM cells (HPLM + 10% dialyzed FBS) was determined as 470; with SEM cells (RPMI 5 mM glucose + 10% FBS), 447; in the experiment on SEM cells (setting [1]) it was 461; in the experiment on P12-Ichikawa (HPLM + 10% dialyzed FBS) it was 431; in the experiment on P12-Ichikawa (RPMI 5 mM glucose + 10% FBS), 453; with P12-Ichikawa (setting [1]), 436. The results for the “AUC of viability dose-response curve” value in the experiment with NOMO1 (HPLM + 10% dialyzed FBS), with NOMO1 (RPMI 5 mM glucose + 10% FBS) and with NOMO1 (setting [1]) were 441, 402 and 466, respectively.

With `Nc1ccc([S+](=O)([O-])Nc2ccccn2)cc1`, the “AUC of viability dose-response curve” value is 438 in the experiment on SEM cells (HPLM + 10% dialyzed FBS); 468 in the experiment with SEM cells (RPMI 5 mM glucose + 10% FBS); 448 in the experiment on SEM cells (setting [1]); 467 with P12-Ichikawa (HPLM + 10% dialyzed FBS); 439 with P12-Ichikawa (RPMI 5 mM glucose + 10% FBS); 445 with P12-Ichikawa (setting [1]). Moreover, the “AUC of viability dose-response curve” value came out at 470 in the experiment with NOMO1 (HPLM + 10% dialyzed FBS), 467 in the experiment with NOMO1 (RPMI 5 mM glucose + 10% FBS) and 464 in the experiment on NOMO1 (setting [1]).

For `COC(=O)N[C@H](C(=O)N[C@@H](Cc1ccccc1)[C@@H](O)CN(Cc1ccc(-c2ccccn2)cc1)NC(=O)[C@@H](NC(=O)OC)C(C)(C)C)C(C)(C)C`, the “AUC of viability dose-response curve” value with SEM cells (HPLM + 10% dialyzed FBS) was 464; in the experiment with SEM cells (RPMI 5 mM glucose + 10% FBS) it was 457; in the experiment on SEM cells (setting [1]), 469; in the experiment on P12-Ichikawa (HPLM + 10% dialyzed FBS) it was 455; in the experiment on P12-Ichikawa (RPMI 5 mM glucose + 10% FBS) it was 467; with P12-Ichikawa (setting [1]), 451. For the same compound, the “AUC of viability dose-response curve” value in the experiment with NOMO1 (HPLM + 10% dialyzed FBS) came out at 388; in the experiment with NOMO1 (RPMI 5 mM glucose + 10% FBS) it was 470; with NOMO1 (setting [1]) it was 453.

Turning to `O=C1c2cccc(O)c2C(=O)c2c(O)cc(CO)cc21`, the “AUC of viability dose-response curve” value in the experiment on SEM cells (HPLM + 10% dialyzed FBS) was 474; with SEM cells (RPMI 5 mM glucose + 10% FBS), 451; with SEM cells (setting [1]) it was 422; in the experiment on P12-Ichikawa (HPLM + 10% dialyzed FBS) it was 452; with P12-Ichikawa (RPMI 5 mM glucose + 10% FBS), 450; with P12-Ichikawa (setting [1]), 431. In addition, the “AUC of viability dose-response curve” value was 417 in the experiment with NOMO1 (HPLM + 10% dialyzed FBS), 424 with NOMO1 (RPMI 5 mM glucose + 10% FBS) and 451 in the experiment with NOMO1 (setting [1]).

Consider `Cc1ccccc1C(C(=O)NC1CCCCC1)N(C(=O)CNc1ccc(C#N)cc1)c1cccc(F)c1` (stereo not drawn), for which the “AUC of viability dose-response curve” value in the experiment with SEM cells (HPLM + 10% dialyzed FBS) came to 471; with SEM cells (RPMI 5 mM glucose + 10% FBS) it was 454; in the experiment on SEM cells (setting [1]), 470; in the experiment with P12-Ichikawa (HPLM + 10% dialyzed FBS), 453; in the experiment with P12-Ichikawa (RPMI 5 mM glucose + 10% FBS), 476; in the experiment on P12-Ichikawa (setting [1]), 467.

With `CN1C(=O)COc2c(C(=O)NC3CN4CCC3CC4)cc(Cl)cc21` (stereo not drawn), the “AUC of viability dose-response curve” value in the experiment on SEM cells (HPLM + 10% dialyzed FBS) amounted to 457; with SEM cells (RPMI 5 mM glucose + 10% FBS), 453; in the experiment with SEM cells (setting [1]) it was 471; with NOMO1 (HPLM + 10% dialyzed FBS), 448; with NOMO1 (RPMI 5 mM glucose + 10% FBS), 464; in the experiment on NOMO1 (setting [1]), 439.

Regarding `Cc1cc(SCc2sc(-c3ccc(C(F)(F)F)c(F)c3)nc2C)ccc1OCC(=O)O`, the “AUC of viability dose-response curve” value was 461 with SEM cells (HPLM + 10% dialyzed FBS); 432 in the experiment with SEM cells (RPMI 5 mM glucose + 10% FBS); 446 in the experiment with SEM cells (setting [1]); 466 in the experiment with P12-Ichikawa (HPLM + 10% dialyzed FBS); 449 with P12-Ichikawa (RPMI 5 mM glucose + 10% FBS); 439 in the experiment with P12-Ichikawa (setting [1]). Besides, the “AUC of viability dose-response curve” value is 458 in the experiment on NOMO1 (HPLM + 10% dialyzed FBS), 439 with NOMO1 (RPMI 5 mM glucose + 10% FBS) and 467 in the experiment with NOMO1 (setting [1]).

`CN1[C@@H]2CC(O)C[C@H]1[C@@H]1O[C@@H]12` (stereo partly drawn): the “AUC of viability dose-response curve” value in the experiment with P12-Ichikawa (HPLM + 10% dialyzed FBS) was found to be 455; with P12-Ichikawa (RPMI 5 mM glucose + 10% FBS) it was 448; with P12-Ichikawa (setting [1]) it was 454; in the experiment on NOMO1 (HPLM + 10% dialyzed FBS), 451; in the experiment on NOMO1 (RPMI 5 mM glucose + 10% FBS), 453; in the experiment on NOMO1 (setting [1]) it was 451.

For the compound `CCC(CC)[C@H](NC(C)=O)[C@@H]1[C@H](O)[C@@H](C(=O)O)C[C@H]1NC(=N)N`, the “AUC of viability dose-response curve” value in the experiment with SEM cells (HPLM + 10% dialyzed FBS) came to 335; with SEM cells (RPMI 5 mM glucose + 10% FBS), 394; in the experiment with SEM cells (setting [1]), 365; with NOMO1 (HPLM + 10% dialyzed FBS), 404; with NOMO1 (RPMI 5 mM glucose + 10% FBS), 407; with NOMO1 (setting [1]), 395.

As for `CC1=C2N=C([NH]C2=CC(=C1)N3CCOCC3)\C4=C(NC[C@@H](O)C5=CC=CC(=C5)Cl)\C=C/NC4=O`, the “AUC of viability dose-response curve” value turned out to be 469 with P12-Ichikawa (HPLM + 10% dialyzed FBS); 469 in the experiment on P12-Ichikawa (RPMI 5 mM glucose + 10% FBS); 465 in the experiment with P12-Ichikawa (setting [1]); 385 in the experiment on NOMO1 (HPLM + 10% dialyzed FBS); 411 in the experiment on NOMO1 (RPMI 5 mM glucose + 10% FBS); 378 with NOMO1 (setting [1]).
